Assay results: ChEMBL document CHEMBL3425437, “Selective Inhibitors of Cyclin G Associated Kinase (GAK) as Anti-Hepatitis C Agents” (J Med Chem, 2015)

Assays:
[1] = biological target: T1, Cyclin-G-associated kinase (Homo sapiens, UniProt O14976); assay: Binding affinity to human GAK fused to T7 bacteriophage expressed in Escherichia coli BL21 after 1 hr by qPCR analysis
T1 sequence (O14976 whole entry): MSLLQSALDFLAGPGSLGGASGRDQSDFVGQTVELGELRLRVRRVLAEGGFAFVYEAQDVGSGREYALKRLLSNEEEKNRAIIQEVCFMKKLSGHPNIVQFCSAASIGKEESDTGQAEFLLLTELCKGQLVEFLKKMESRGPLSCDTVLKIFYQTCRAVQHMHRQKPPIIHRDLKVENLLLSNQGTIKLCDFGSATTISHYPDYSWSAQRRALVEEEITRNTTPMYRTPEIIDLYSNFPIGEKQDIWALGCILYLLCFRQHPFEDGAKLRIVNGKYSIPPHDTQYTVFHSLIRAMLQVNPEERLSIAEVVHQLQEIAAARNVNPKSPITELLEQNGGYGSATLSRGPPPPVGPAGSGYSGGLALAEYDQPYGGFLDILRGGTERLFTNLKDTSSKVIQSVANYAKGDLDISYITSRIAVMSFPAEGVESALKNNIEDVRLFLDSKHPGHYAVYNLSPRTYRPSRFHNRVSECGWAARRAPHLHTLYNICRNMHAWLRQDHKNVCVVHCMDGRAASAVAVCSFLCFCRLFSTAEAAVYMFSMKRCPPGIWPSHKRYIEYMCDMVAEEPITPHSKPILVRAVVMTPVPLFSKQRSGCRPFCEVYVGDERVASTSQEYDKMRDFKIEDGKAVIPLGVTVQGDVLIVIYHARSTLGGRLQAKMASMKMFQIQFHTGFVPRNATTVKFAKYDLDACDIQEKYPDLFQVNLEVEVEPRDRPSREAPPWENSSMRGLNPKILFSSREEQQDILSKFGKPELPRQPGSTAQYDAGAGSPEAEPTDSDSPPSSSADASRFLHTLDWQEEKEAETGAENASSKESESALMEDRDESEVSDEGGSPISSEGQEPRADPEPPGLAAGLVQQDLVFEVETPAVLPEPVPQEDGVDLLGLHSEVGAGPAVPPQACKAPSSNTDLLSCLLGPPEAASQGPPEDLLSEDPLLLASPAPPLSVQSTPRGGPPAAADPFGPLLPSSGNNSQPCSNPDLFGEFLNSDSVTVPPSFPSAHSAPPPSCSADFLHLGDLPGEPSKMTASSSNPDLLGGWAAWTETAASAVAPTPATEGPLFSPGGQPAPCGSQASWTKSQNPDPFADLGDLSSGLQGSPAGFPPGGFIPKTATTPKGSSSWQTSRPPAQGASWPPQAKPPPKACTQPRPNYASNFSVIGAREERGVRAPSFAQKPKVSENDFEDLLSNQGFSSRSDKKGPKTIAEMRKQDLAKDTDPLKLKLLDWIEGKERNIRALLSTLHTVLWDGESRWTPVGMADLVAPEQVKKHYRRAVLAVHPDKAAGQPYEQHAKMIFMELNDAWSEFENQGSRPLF

Hepatitis C virus [2] = assay: Antiviral activity against Hepatitis C virus J6/JFH infected in human Huh7.5 cells assessed as inhibition of viral replication measured after 72 hrs by luciferase reporter gene assay; assay type: functional, organism-based, Hepacivirus hominis; conditions: Huh-7, 72 h
[3] = Cytotoxicity against human Huh7.5 cells infected with Hepatitis C virus J6/JFH assessed as effect on cell viability after 72 hrs by Alamarblue assay; assay type: cell-based; conditions: huh-7, 72 h
Hepatitis C virus [4] = assay: Antiviral activity against Hepatitis C virus H77 pseudoparticle assessed as inhibition of viral entry into human Huh7.5 cells after 4 hrs by luciferase reporter gene assay; assay type: functional, cell-based, Hepacivirus hominis; conditions: genotype 1a H77, Huh-7, 4 h
[5] = Cytotoxicity against human Huh7.5 cells infected with Hepatitis C virus H77 pseudoparticle assessed as effect on cell viability after 4 hrs by Alamarblue assay; assay type: cell-based; conditions: huh-7, 4 h
Hepatitis C virus [6] = assay: Antiviral activity against Hepatitis C virus J6/JFH electroporated in human Huh7.5 cells assessed as inhibition of intracellular infectivity drug treated every 24 hrs for 72 hrs measured 72 hrs post electroporation by luciferase reporter gene assay; assay type: functional, organism-based, Hepacivirus hominis; conditions: Huh-7
Hepatitis C virus [7] = assay: Antiviral activity against Hepatitis C virus J6/JFH infected in human Huh7.5 cells assessed as inhibition of extracellular infectivity drug treated every 24 hrs for 72 hrs measured after 72 hrs by luciferase reporter gene assay; assay type: functional, organism-based, Hepacivirus hominis; conditions: Huh-7
[8] = biological target: Dual specificity protein kinase CLK2 (Homo sapiens, UniProt P49760); assay: Binding affinity to human CLK2
[9] = biological target: Macrophage colony-stimulating factor 1 receptor (Homo sapiens, UniProt P07333); assay: Binding affinity to human CSF1R
[10] = biological target: T2, Receptor-type tyrosine-protein kinase FLT3 (Homo sapiens, UniProt P36888); assay: Binding affinity to human FLT3
T2 sequence (P36888 whole entry): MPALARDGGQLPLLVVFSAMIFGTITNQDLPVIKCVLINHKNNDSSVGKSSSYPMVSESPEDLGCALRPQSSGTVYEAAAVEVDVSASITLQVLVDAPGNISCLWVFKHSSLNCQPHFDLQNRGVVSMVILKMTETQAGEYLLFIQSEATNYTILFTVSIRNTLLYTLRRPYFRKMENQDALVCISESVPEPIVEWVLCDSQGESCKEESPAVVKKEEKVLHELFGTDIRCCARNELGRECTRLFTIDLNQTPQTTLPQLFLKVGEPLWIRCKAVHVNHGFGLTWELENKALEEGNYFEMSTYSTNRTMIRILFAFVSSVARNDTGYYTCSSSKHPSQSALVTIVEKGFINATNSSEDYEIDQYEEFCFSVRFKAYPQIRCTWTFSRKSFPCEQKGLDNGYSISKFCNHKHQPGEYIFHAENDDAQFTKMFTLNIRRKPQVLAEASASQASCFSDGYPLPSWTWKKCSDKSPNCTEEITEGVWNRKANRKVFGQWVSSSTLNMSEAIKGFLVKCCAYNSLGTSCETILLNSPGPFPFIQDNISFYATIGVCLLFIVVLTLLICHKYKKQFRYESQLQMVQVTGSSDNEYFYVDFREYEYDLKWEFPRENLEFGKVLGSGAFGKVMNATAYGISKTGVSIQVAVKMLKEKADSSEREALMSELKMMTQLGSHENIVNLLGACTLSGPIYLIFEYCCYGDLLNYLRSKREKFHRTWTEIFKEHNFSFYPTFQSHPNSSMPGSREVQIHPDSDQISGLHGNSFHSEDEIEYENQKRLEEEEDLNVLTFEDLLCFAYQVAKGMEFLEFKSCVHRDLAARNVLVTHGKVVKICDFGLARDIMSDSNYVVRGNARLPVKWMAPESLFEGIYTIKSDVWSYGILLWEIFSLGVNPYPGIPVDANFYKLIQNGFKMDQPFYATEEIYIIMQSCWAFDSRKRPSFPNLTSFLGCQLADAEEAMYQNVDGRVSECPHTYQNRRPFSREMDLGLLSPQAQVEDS

[11] = biological target: Mast/stem cell growth factor receptor Kit (Homo sapiens, UniProt P10721); assay: Binding affinity to human KIT
[12] = biological target: T3, Dual specificity mitogen-activated protein kinase kinase 5 (Homo sapiens, UniProt Q13163); assay: Binding affinity to human MEK5
T3 sequence (Q13163 whole entry): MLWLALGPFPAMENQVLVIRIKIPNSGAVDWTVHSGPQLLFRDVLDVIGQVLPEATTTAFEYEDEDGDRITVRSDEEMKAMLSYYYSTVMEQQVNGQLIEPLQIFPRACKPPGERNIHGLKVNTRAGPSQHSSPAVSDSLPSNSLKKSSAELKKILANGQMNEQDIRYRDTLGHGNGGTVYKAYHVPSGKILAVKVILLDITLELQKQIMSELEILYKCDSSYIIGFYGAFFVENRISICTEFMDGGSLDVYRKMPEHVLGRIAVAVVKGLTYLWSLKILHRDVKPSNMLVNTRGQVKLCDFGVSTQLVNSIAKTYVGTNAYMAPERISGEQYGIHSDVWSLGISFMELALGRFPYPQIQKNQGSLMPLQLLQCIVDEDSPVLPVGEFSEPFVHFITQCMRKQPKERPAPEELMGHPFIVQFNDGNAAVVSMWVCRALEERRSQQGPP

[13] = biological target: Platelet-derived growth factor receptor alpha (Homo sapiens, UniProt P16234); assay: Binding affinity to human PDGFRalpha
[14] = biological target: Platelet-derived growth factor receptor beta (Homo sapiens, UniProt P09619); assay: Binding affinity to human PDGFRbeta
Chain of Platelet-derived growth factor receptor beta (P09619 whole entry): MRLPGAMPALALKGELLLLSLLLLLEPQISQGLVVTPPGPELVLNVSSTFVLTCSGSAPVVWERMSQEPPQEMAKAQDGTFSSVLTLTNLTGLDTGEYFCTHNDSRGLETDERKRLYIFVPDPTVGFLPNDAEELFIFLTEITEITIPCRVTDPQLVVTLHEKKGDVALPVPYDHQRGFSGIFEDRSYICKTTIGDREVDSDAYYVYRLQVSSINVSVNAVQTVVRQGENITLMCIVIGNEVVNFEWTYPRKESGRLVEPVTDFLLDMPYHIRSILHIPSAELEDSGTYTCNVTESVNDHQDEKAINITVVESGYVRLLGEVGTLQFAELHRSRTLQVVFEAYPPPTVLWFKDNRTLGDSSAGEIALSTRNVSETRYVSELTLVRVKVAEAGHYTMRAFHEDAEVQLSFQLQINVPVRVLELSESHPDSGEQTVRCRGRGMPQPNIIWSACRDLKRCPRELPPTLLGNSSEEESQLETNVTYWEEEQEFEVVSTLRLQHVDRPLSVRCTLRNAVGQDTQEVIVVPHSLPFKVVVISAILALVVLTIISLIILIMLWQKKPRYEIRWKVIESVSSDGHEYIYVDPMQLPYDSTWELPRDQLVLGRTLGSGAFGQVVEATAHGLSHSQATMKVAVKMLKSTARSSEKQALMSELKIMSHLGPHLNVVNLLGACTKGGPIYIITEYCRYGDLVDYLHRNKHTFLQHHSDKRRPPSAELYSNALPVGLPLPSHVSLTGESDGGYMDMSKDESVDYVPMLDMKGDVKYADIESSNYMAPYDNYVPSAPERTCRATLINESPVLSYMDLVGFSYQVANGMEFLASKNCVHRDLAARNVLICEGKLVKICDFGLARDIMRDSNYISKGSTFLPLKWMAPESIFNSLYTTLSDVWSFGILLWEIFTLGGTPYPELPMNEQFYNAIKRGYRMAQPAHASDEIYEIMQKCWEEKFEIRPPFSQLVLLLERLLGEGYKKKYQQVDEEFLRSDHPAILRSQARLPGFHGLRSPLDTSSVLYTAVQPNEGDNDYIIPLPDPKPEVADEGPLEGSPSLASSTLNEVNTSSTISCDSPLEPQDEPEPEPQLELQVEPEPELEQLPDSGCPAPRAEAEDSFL

Chain of Macrophage colony-stimulating factor 1 receptor (P07333 whole entry): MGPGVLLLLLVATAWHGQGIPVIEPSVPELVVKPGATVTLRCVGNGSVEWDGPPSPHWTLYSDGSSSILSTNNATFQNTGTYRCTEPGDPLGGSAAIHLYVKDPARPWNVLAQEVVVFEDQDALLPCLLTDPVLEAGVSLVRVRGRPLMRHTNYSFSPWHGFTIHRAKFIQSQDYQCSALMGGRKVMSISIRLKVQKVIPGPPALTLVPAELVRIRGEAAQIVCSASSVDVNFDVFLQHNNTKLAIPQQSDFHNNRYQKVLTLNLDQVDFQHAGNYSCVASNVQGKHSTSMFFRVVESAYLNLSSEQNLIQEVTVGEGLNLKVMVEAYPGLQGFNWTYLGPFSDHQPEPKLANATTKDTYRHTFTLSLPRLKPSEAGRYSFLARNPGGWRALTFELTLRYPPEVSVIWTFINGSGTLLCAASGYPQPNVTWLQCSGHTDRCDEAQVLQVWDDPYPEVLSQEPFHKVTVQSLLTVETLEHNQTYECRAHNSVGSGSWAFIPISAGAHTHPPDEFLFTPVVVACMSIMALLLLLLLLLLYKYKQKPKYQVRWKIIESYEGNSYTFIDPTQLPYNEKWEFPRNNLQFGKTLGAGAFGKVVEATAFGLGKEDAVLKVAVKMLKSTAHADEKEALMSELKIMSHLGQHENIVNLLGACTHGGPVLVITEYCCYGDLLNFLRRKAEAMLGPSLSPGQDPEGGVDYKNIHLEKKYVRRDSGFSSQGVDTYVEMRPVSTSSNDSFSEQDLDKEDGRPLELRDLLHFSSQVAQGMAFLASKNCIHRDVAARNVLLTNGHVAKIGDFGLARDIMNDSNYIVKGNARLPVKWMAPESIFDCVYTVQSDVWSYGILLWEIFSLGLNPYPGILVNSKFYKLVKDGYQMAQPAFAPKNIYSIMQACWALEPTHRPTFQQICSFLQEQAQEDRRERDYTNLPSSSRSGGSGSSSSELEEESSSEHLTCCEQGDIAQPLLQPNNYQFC
Chain of Dual specificity protein kinase CLK2 (P49760 whole entry): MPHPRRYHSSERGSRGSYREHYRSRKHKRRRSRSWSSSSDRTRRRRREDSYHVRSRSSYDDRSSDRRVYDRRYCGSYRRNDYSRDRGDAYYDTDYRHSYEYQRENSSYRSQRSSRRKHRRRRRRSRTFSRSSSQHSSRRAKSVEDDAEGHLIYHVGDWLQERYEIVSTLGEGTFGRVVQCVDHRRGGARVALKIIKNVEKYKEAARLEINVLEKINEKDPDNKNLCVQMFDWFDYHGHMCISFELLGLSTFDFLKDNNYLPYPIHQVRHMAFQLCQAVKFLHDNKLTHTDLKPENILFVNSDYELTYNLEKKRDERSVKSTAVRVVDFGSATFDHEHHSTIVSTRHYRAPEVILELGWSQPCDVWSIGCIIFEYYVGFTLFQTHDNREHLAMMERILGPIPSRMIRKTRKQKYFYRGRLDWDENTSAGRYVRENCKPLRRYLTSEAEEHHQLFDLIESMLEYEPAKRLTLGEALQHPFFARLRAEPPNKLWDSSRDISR
Chain of Mast/stem cell growth factor receptor Kit (P10721 whole entry): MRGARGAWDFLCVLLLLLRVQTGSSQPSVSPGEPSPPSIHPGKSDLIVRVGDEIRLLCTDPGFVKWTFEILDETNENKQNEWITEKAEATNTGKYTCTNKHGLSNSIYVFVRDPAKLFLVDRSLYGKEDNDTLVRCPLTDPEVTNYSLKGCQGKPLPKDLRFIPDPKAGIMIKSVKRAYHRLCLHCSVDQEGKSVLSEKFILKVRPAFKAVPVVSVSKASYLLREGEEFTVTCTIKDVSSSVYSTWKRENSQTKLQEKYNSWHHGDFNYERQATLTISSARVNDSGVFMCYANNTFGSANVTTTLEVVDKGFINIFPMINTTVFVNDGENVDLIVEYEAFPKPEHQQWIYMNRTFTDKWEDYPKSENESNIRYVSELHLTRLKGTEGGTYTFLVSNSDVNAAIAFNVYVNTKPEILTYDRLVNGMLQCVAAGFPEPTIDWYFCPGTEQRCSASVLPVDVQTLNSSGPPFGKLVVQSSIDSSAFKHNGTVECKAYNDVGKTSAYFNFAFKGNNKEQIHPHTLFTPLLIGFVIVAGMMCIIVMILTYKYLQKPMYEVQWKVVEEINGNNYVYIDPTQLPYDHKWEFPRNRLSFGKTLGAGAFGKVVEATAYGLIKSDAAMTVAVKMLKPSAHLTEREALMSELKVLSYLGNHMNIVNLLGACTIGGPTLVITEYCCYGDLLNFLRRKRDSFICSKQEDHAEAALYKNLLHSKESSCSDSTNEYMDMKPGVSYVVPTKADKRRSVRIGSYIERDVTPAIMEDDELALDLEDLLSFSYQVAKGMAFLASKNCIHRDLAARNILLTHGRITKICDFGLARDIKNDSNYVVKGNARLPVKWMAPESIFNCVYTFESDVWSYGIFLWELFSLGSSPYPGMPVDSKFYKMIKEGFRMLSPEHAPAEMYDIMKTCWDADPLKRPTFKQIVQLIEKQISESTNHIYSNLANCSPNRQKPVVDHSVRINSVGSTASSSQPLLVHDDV
Chain of Platelet-derived growth factor receptor alpha (P16234 whole entry): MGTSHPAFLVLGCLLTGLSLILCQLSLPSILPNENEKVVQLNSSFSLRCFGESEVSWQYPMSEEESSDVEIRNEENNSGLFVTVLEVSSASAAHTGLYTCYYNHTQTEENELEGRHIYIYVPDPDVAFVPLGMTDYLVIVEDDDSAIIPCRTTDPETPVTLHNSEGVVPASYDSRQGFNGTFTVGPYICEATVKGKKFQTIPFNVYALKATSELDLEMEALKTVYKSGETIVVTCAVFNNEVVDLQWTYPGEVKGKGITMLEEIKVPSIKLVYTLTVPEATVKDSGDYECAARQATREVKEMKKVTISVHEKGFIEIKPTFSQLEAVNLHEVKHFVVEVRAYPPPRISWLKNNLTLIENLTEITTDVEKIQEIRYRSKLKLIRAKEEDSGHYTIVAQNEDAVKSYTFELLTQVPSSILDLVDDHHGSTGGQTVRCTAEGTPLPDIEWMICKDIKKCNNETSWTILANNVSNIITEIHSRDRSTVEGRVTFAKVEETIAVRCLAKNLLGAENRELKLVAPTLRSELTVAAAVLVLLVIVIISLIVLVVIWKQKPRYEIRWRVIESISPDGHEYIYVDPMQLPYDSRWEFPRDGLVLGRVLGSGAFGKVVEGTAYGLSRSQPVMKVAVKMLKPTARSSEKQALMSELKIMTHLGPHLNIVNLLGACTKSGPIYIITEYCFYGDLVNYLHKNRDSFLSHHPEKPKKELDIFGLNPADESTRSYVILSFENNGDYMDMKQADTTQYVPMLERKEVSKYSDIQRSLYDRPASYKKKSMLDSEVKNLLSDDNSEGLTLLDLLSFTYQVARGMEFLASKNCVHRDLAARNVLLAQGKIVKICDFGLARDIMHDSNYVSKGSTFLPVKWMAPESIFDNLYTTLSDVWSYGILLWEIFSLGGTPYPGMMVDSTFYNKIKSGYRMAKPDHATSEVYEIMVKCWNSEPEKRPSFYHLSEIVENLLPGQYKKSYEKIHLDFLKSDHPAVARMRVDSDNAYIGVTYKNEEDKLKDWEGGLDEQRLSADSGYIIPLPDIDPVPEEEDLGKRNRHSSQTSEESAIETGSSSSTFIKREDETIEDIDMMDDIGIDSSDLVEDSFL

COc1ccc(-c2cnc3c(N4CCOCC4)snc3c2)cc1OC
Kd [1]: 52 nM

COc1cc(-c2cnc3c(N4CCOCC4)snc3c2)cc(OC)c1OC
EC50 (Hepatitis C virus [2]): 2550 nM | CC50 [3]: 23300 nM | EC50 (Hepatitis C virus [4]): 3600 nM | Activity [5]: Non-toxic | EC50 (Hepatitis C virus [6]): 1640 nM | EC50 (Hepatitis C virus [7]): 2130 nM | Kd [8]: 710 nM | Kd [9]: 320 nM | Kd [10]: 110 nM | Kd [11]: 29 nM | Kd [12]: 150 nM | Kd [13]: 220 nM | Kd [14]: 70 nM

c1cc(-c2cnc3c(N4CCOCC4)snc3c2)co1
Kd [1]: 200 nM

c1cc(-c2cnc3c(N4CCOCC4)snc3c2)cs1
Kd [1]: 42 nM

COc1cc(OC)cc(-c2cnc3c(N4CCOCC4)snc3c2)c1
Kd [1]: 72 nM

COc1ccc(OC)c(-c2cnc3c(N4CCOCC4)snc3c2)c1
Kd [1]: 130 nM

COc1cc(-c2cnc3c(N4CCOCC4)snc3c2)ccc1O
Kd [1]: 18 nM

C#Cc1cccc(Nc2ncnc3cc(OCCOC)c(OCCOC)cc23)c1 [ERLOTINIB]
EC50 (Hepatitis C virus [2]): 500 nM | EC50 (Hepatitis C virus [6]): 500 nM | EC50 (Hepatitis C virus [7]): 500 nM

COc1cc(-c2cnc3c(N4CCOCC4)snc3c2)ccc1OC(C)=O
Kd [1]: 18 nM

COc1cc(-c2cnc3c(N4CCOCC4)snc3c2)ccc1N
Activity [5]: Non-toxic
